These results are taken from US9422545B2 (priority 2013, dated 2016).

For one assay, the system named is virulent C. burnetii. Set-up: species or system Coxiella burnetii.
Another assay deals with 1E4. Type of assay: binding, mouse.

As for EDTA, the “number of dead bacteria” value in the assay on virulent C. burnetii is “significantly higher numbers of dead bacteria”. As for SPPWHKHELHRK [m1E44], in the assay with 1E4, the “inhibition index (A490 without PI-A490 with PI/A490 without PI)” value is reported as “highest inhibition index”.
